Data reported in patent US11208696B2, “Prognostic biomarkers for TTK inhibitor chemotherapy” (NETHERLANDS TRANSLATIONAL RESEARCH CENTER B.V., priority 2015, dated 2021).

What was measured:
HCT116 cells = assay: Proliferation assay with isogenic cell line pair: parental HCT116 (S45del/+) and isogenic derivative lacking mutated CTNNB1; format: cell-based, human; details: for Δefficacy: difference in maximum percentage effect, isogenic (−/+) versus parental HCT116 (S45del/+), negative = parental more sensitive
[1] = system: CTNNB1-mutant cancer cell lines (A427, LS 174T, HCT116, SW48); assay: Cell proliferation assays, panel of sixty-six cancer cell lines: CTNNB1-mutant cell lines; format: cell-based, human

Row | Structure (SMILES) | Δefficacy (HCT116 cells) | ΔpIC50 [1] | IC50 ([1]; Homo sapiens, 120 h, read-out: pIC50 average Mutant (converted)) [nM] | ΔpIC50 (HCT116 cells)
1 | COCC(=O)N1CCN(c2ccc(Nc3ncc4c(n3)-n3ccc(C(=O)Nc5c(C)cccc5C)c3CC4)c(OC)c2)CC1 [Example 17, N-(2,6-dimethylphenyl)-2-[2-methoxy-4-[4-(2-methoxyacetyl)piperazin-1-yl]anilino]-5,6-dihydropyrimido[4,5-e]indolizine-7-carboxamide] | −16 |  |  | 
2 | COc1cc(C(=O)NC2CCOCC2)ccc1Nc1ncc2c(n1)-n1ccc(C(=O)Nc3c(C)cccc3C)c1CC2 [Example 8, N-(2,6-dimethylphenyl)-2-[2-methoxy-4-(tetrahydropyran-4-ylcarbamoyl)anilino]-5,6-dihydropyrimido[4,5-e]indolizine-7-carboxamide] | −11 | −0.57 | 11 | −0.29
3 | CCc1n[nH]c(CC)c1NC(=O)c1ccn2c1CCc1cnc(Nc3ccc(N4CCN(C)CC4)cc3OC(F)F)nc1-2 [Example 12, N-(3,5-diethyl-1H-pyrazol-4-yl)-2-[2-(difluoromethoxy)-4-(4-methylpiperazin-1-yl)anilino]-5,6-dihydropyrimido[4,5-e]indolizine-7-carboxamide] | −18 |  |  | 
4 | COc1ccc(Oc2cc(NCC3CCOCC3)c3ncc(-c4ccc(C(=O)NC5CC5)c(C)c4)n3n2)c(F)c1F [Example 5, N-cyclopropyl-4-[6-(2,3-difluoro-4-methoxy-phenoxy)-8-(tetrahydropyran-4-ylmethylamino)imidazo[1,2-b]pyridazin-3-yl]-2-methyl-benzamide, reference compound] | −26 |  |  | 
